Assay results from ChEMBL document CHEMBL3992527, “Design and Synthesis of Novel Nonsteroidal Anti-Inflammatory Drugs and Carbonic Anhydrase Inhibitors Hybrids (NSAIDs-CAIs) for the Treatment of Rheumatoid Arthritis” (J Med Chem, 2017).
pKi: −log10 of the molar value. Calls of active or inactive are those of the source.

Assays:
Rattus norvegicus [1] = assay: Effect on normal pain sensitivity in complete Freund's adjuvant-induced Sprague-Dawley rat rheumatoid arthritis model assessed as change in contralateral paw withdrawal threshold at 10 mg/kg, po administered once on day 14 post complete Freund's adjuvant challenge measured after 15 to 75 mins by analgesimetry; assay type: ADME, organism-based; settings: in vivo
Carbonic anhydrase 7 = Carbonic anhydrase 7 (Homo sapiens, UniProt P43166); assay: Inhibition of recombinant human CA7 preincubated for 15 mins by stopped-flow CO2 hydration assay
Carbonic anhydrase 2 = Carbonic anhydrase 2 (Homo sapiens, UniProt P00918); assay: Inhibition of recombinant human CA2 preincubated for 15 mins by stopped-flow CO2 hydration assay
Carbonic anhydrase 9 = Carbonic anhydrase 9 (Homo sapiens, UniProt Q16790)
Description: Inhibition of recombinant human CA9 catalytic domain preincubated for 15 mins by stopped-flow CO2 hydration assay

Rattus norvegicus [2] = assay: (§1) Antihyperalgesic activity in complete Freund's adjuvant-induced Sprague-Dawley rat rheumatoid arthritis model assessed as improvement in postural imbalance by measuring difference between weight burdened on contralateral and ipsilateral paw at 10 mg/kg, po administered once on day 14 post complete Freund's adjuvant challenge measured after 15 to 30 mins by incapacitance test; assay type: functional, organism-based
Rattus norvegicus [3] = assay: (§2) Antihyperalgesic activity in complete Freund's adjuvant-induced Sprague-Dawley rat rheumatoid arthritis model assessed as increase in weight tolerance on ipsilateral paw at 10 mg/kg, po administered once on day 14 post complete Freund's adjuvant challenge measured after 45 mins post dose by analgesimetry; assay type: functional, organism-based
Carbonic anhydrase 1 = Carbonic anhydrase 1 (Homo sapiens, UniProt P00915); assay: Inhibition of recombinant human CA1 preincubated for 15 mins by stopped-flow CO2 hydration assay
Rattus norvegicus [4] = assay: as §2, with “15 to 75” for “45”; assay type: functional, organism-based
Rattus norvegicus [5] = assay: as §2, with “100” for “10”, “15 to 30” for “45”; assay type: functional, organism-based
Rattus norvegicus [6] = assay: as §1, with “100” for “10”; assay type: functional, organism-based
Carbonic anhydrase 4 = Carbonic anhydrase 4 (Homo sapiens, UniProt P22748)
Description: Inhibition of recombinant human CA4 preincubated for 15 mins by stopped-flow CO2 hydration assay

Carbonic anhydrase 12 = Carbonic anhydrase 12 (Homo sapiens, UniProt O43570); assay: Inhibition of recombinant human CA12 preincubated for 15 mins by stopped-flow CO2 hydration assay
Rattus norvegicus [7] = assay: Antihyperalgesic activity in complete Freund's adjuvant-induced Sprague-Dawley rat rheumatoid arthritis model assessed as improvement in postural imbalance by measuring difference between weight burdened on contralateral and ipsilateral paw at 10 mg/kg, po administered once on day 14 post complete Freund's adjuvant challenge measured at 45 mins post dose by incapacitance test (reference value: 45.6 +/- …; assay type: functional
Rattus norvegicus [8] = assay: as §2, with “as” for “as increase in”, “at” for “after”, “analgesimetry (reference value: 47.6 +/- 1.2 g)” for “analgesimetry”; assay type: functional
Rattus norvegicus [9] = assay: as §2, with “at 75” for “after 45”; assay type: functional, organism-based
Rattus norvegicus [10] = assay: as §1, with “at 60” for “after 15 to 30”, “mins post dose” for “mins”; assay type: functional, organism-based
Rattus norvegicus [11] = assay: Antihyperalgesic activity in complete Freund's adjuvant-induced Sprague-Dawley rat rheumatoid arthritis model assessed as improvement in postural imbalance by measuring difference between weight burdened on contralateral and ipsilateral paw at 10 mg/kg, po administered once on day 14 post complete Freund's adjuvant challenge measured at 30 mins post dose by incapacitance test (reference value: 45.6 +/- …; assay type: functional
Rattus norvegicus [12] = assay: as §2, with “as” for “as increase in”, “at 30” for “after 45”, “analgesimetry (reference value: 47.6 +/- 1.2 g)” for “analgesimetry”; assay type: functional
Rattus norvegicus [13] = assay: as §2, with “after 30 to” for “after”; assay type: functional, organism-based

Chain of Carbonic anhydrase 7 (P43166 whole entry): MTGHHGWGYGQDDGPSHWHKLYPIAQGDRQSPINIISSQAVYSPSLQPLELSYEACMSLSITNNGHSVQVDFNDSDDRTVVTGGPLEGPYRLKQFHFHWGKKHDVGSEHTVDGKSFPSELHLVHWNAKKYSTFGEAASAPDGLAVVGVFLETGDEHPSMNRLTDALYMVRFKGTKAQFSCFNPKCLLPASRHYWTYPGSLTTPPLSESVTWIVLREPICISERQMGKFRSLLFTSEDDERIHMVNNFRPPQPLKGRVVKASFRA
Chain of Carbonic anhydrase 12 (O43570 whole entry): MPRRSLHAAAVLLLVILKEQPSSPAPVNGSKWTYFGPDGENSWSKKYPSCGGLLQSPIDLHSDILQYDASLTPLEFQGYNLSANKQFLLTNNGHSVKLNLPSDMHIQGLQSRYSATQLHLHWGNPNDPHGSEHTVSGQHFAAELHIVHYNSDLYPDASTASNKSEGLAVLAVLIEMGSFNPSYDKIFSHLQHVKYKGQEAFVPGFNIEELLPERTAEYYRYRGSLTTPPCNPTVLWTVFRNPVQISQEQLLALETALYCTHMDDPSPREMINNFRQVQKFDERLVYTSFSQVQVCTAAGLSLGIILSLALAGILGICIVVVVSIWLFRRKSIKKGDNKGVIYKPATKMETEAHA
Chain of Carbonic anhydrase 4 (P22748 whole entry): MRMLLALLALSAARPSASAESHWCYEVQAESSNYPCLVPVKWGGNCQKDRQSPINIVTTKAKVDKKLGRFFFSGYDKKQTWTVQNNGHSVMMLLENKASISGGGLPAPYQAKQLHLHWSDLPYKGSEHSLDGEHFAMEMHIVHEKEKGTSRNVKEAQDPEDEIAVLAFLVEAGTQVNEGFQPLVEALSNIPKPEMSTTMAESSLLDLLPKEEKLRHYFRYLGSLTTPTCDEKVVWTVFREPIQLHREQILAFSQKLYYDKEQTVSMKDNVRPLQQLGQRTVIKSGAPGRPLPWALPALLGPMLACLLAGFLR
Chain of Carbonic anhydrase 1 (P00915 whole entry): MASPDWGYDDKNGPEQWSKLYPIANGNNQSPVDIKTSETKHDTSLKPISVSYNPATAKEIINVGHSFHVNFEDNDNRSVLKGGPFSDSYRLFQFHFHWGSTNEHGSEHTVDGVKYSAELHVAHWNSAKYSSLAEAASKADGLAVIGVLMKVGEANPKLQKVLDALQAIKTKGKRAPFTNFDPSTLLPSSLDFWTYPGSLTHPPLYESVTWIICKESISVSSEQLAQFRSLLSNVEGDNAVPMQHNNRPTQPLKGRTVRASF

| SMILES | Activity (Rattus norvegicus [1]) | pKi (Carbonic anhydrase 7) | pKi (Carbonic anhydrase 2) | pKi (Carbonic anhydrase 9) | pKi (Carbonic anhydrase 1) | pKi (Carbonic anhydrase 12) | other results |
| --- | --- | --- | --- | --- | --- | --- | --- |
| COc1ccc2c(c1)c(CC(=O)NCCOc1ccc3oc(=O)ccc3c1)c(C)n2C(=O)c1ccc(Cl)cc1 | Non-Toxic | < 7.00 | < 7.00 | 7.50 | < 7.00 | – | Activity (Rattus norvegicus [2]): Active; Activity (Rattus norvegicus [3]): Active |
| CC(C(=O)NCCOc1ccc2ccc(=O)oc2c1)c1cccc(C(=O)c2ccccc2)c1 (racemic) | Non-Toxic | < 7.00 | 7.07 | < 7.00 | < 7.00 | – | Activity (Rattus norvegicus [4]): inactive |
| CC(C)Cc1ccc(C(C)C(=O)O)cc1 (stereo not given) | – | – | – | – | – | – | Activity (Rattus norvegicus [5]): Active; Activity (Rattus norvegicus [6]): Active |
| O=C(Cc1ccccc1Nc1c(Cl)cccc1Cl)NCCOc1ccc2ccc(=O)oc2c1 | Non-Toxic | < 7.00 | < 7.00 | – | < 7.00 | – | Activity (Rattus norvegicus [4]): inactive; pKi (Carbonic anhydrase 4): 8.04 |
| CC(C(=O)NCCOc1ccc2ccc(=O)oc2c1)c1ccc(-c2ccccc2)c(F)c1 (racemic) | Non-Toxic | < 7.00 | < 7.00 | < 7.00 | < 7.00 | < 7.00 | Activity (Rattus norvegicus [2]): Active; Activity (Rattus norvegicus [3]): Active |
| O=C(Cc1ccccc1Nc1c(Cl)cccc1Cl)NCCOc1ccc2oc(=O)ccc2c1 | – | < 7.00 | < 7.00 | – | < 7.00 | – | pKi (Carbonic anhydrase 4): 8.25 |
| CC(C)Cc1ccc(C(C)C(=O)NCCOc2ccc3oc(=O)ccc3c2)cc1 (stereo not given) | – | < 7.00 | < 7.00 | < 7.00 | < 7.00 | < 7.00 | pKi (Carbonic anhydrase 4): 9.36 |
| CC(C(=O)NCCOc1ccc2oc(=O)ccc2c1)c1cccc(C(=O)c2ccccc2)c1 (racemic) | – | < 7.00 | < 7.00 | 7.26 | < 7.00 | < 7.00 | – |
| CC1=C(CC(=O)NCCOc2ccc3oc(=O)ccc3c2)c2cc(F)ccc2/C1=C\c1ccc([S+](C)[O-])cc1 (stereo not given) | – | < 7.00 | < 7.00 | 7.51 | < 7.00 | – | – |
| O=C(c1ccccc1)c1ccc2n1CCC2C(=O)NCCOc1ccc2ccc(=O)oc2c1 (racemic) | Non-Toxic | < 7.00 | < 7.00 | < 7.00 | < 7.00 | < 7.00 | Activity (Rattus norvegicus [3]): Active |
| O=C(c1ccccc1)c1ccc2n1CCC2C(=O)NCCOc1ccc2oc(=O)ccc2c1 (racemic) | – | < 7.00 | < 7.00 | 7.50 | < 7.00 | < 7.00 | – |
| COc1ccc2cc([C@H](C)C(=O)NCCOc3ccc4oc(=O)ccc4c3)ccc2c1 | – | < 7.00 | < 7.00 | < 7.00 | < 7.00 | < 7.00 | – |
| CC(C)Cc1ccc(C(C)C(=O)NCCOc2ccc3ccc(=O)oc3c2)cc1 (racemic) | Non-Toxic | < 7.00 | < 7.00 | < 7.00 | < 7.00 | 7.41 | Activity (Rattus norvegicus [7]): 11.1 g; Activity (Rattus norvegicus [8]): 61.3 g; Activity (Rattus norvegicus [9]): Active; Activity (Rattus norvegicus [10]): Active; Activity (Rattus norvegicus [11]): 7.9 g; Activity (Rattus norvegicus [12]): 63.8 g; pKi (Carbonic anhydrase 4): 8.04 |
| COc1ccc2cc([C@H](C)C(=O)NCCOc3ccc4ccc(=O)oc4c3)ccc2c1 | – | < 7.00 | < 7.00 | < 7.00 | < 7.00 | – | – |
| CC(C(=O)NCCOc1ccc2oc(=O)ccc2c1)c1ccc(-c2ccccc2)c(F)c1 (racemic) | Non-Toxic | < 7.00 | < 7.00 | – | < 7.00 | – | Activity (Rattus norvegicus [4]): inactive |
| CC1=C(CC(=O)NCCOc2ccc3ccc(=O)oc3c2)c2cc(F)ccc2/C1=C\c1ccc([S+](C)[O-])cc1 (stereo not given) | Non-Toxic | < 7.00 | < 7.00 | 7.55 | < 7.00 | – | Activity (Rattus norvegicus [13]): Active; Activity (Rattus norvegicus [2]): Active |
| COc1ccc2c(c1)c(CC(=O)NCCOc1ccc3ccc(=O)oc3c1)c(C)n2C(=O)c1ccc(Cl)cc1 | Non-Toxic | < 7.00 | < 7.00 | 7.70 | < 7.00 | – | Activity (Rattus norvegicus [4]): inactive |
